Consider 3 molecules from article PMC9963409, “Structural Insight into Catalysis by the Flavin-Dependent NADH Oxidase (Pden_5119) of Paracoccus denitrificans” (International Journal of Molecular Sciences, 2023).

The target in data set [1] is T1, Pden_5119 (Paracoccus denitrificans, UniProt A1BCD5, R116A).
T1 construct: C-terminal His6 tag kept, expressed in E. coli BL21(DE3)pLysS; subunit 20596 g/mol; dimer in solution; contains no cysteine
Put plainly: stopped-flow reduction of enzyme-bound FMN at […] nm, hyperbolic fit of kobs. Conditions: anaerobic reductive half-reaction of enzyme-FMN complex; rapid-equilibrium binding step; 0.1 M sodium phosphate pH 7.3; 10 °C; read-out: KNADH. Type of data set: biochemical.

In data set [2] the target is T2, Pden_5119 (Paracoccus denitrificans, UniProt A1BCD5, H117A).
T2 construct: C-terminal His6 tag kept, expressed in E. coli BL21(DE3)pLysS; subunit 20596 g/mol; dimer in solution; contains no cysteine
The data set is described as above. The note with it: anaerobic reductive half-reaction of enzyme-FMN complex; rapid-equilibrium binding step; 0.1 M sodium phosphate pH 7.3; 10 °C; read-out: KNADH. Type of data set: biochemical.

In data set [3] the target is T3, Pden_5119 (Paracoccus denitrificans, UniProt A1BCD5, R116K).
T3 construct: C-terminal His6 tag kept, expressed in E. coli BL21(DE3)pLysS; subunit 20596 g/mol; dimer in solution; contains no cysteine
Described as above. Conditions: anaerobic reductive half-reaction of enzyme-FMN complex; rapid-equilibrium binding step; 0.1 M sodium phosphate pH 7.3; 10 °C; read-out: KNADH. The data set is classed as biochemical.

The target in data set [4] is T4, Pden_5119 (Paracoccus denitrificans, UniProt A1BCD5).
T4 construct: C-terminal His6 tag kept, expressed in E. coli BL21(DE3)pLysS; subunit 20596 g/mol; dimer in solution; contains no cysteine
The data set is described as above. The note with it: anaerobic reductive half-reaction of enzyme-FMN complex; rapid-equilibrium binding step; 0.1 M sodium phosphate pH 7.3; 10 °C; read-out: KNADH. Type of data set: biochemical.

For data set [5], the target named is T5, Pden_5119 (Paracoccus denitrificans, UniProt A1BCD5, K82A).
T5 construct: C-terminal His6 tag kept, expressed in E. coli BL21(DE3)pLysS; subunit 20596 g/mol; dimer in solution; contains no cysteine
The description is as above. The note with it: anaerobic reductive half-reaction of enzyme-FMN complex; rapid-equilibrium binding step; 0.1 M sodium phosphate pH 7.3; 10 °C; read-out: KNADH. Type of data set: biochemical.

Data set [6] has as its target T5, Pden_5119. Put plainly: intrinsic protein fluorescence quenching titration. The data set is classed as binding. Conditions: read-out: Kd^FMN. From the text:
(§1) intrinsic protein fluorescence quenching titration on Pden_5119

Data set [7] has as its target T3, Pden_5119. Description: intrinsic protein fluorescence quenching titration. The data set is classed as binding. Conditions: read-out: Kd^FMN.
From the text: as §1

The target in data set [8] is T1, Pden_5119. Put plainly: intrinsic protein fluorescence quenching titration. The note with it: read-out: Kd^FMN. Type of data set: binding.
From the text: as §1

Data set [9] deals with T4, Pden_5119. Put plainly: intrinsic protein fluorescence quenching titration. Type of data set: binding. The note with it: read-out: Kd^FMN.
From the text: as §1

Data set [10] addresses T2, Pden_5119. Put plainly: intrinsic protein fluorescence quenching titration. Conditions: read-out: Kd^FMN. The data set is classed as binding.
From the text: as §1

Data set [11] deals with the molecule itself. Put plainly: SAXS; protein at 1.5 mg/mL (73 μM in monomer); ab initio envelope (DAMMIN) and CRYSOL fit of a dimeric homology model to the scattering curve.

T3 sequence (A1BCD5 entry or part of it R116K): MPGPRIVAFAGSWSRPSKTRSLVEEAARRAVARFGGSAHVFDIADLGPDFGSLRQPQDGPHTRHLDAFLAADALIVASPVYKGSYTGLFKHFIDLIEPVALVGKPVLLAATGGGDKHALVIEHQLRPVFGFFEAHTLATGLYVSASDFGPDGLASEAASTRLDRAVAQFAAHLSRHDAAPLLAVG
T1 sequence (A1BCD5 entry or part of it R116A): as the sequence (A1BCD5 entry or part of it R116K) above, with K116A counted along it
T2 sequence (A1BCD5 entry or part of it H117A): as the sequence (A1BCD5 entry or part of it R116K) above, with K116R, H117A counted along it
T5 sequence (A1BCD5 entry or part of it K82A): as the sequence (A1BCD5 entry or part of it R116K) above, with K82A, K116R counted along it

Regarding `NC(=O)C1=CN([C@@H]2O[C@H](COP(=O)(O)OP(=O)(O)OC[C@H]3O[C@@H](n4cnc5c(N)ncnc54)[C@H](O)[C@@H]3O)[C@@H](O)[C@H]2O)C=CC1` [NADH], the Kd in data set [1] was 39 ± 17 µM; in data set [2], 40 ± 7 µM; in [3], 20 ± 4 µM; in [4], 19 ± 1 µM; in [5], 53 ± 18 µM.

As to `Cc1cc2nc3c(=O)[nH]c(=O)nc-3n(C[C@H](O)[C@H](O)[C@H](O)COP(=O)(O)O)c2cc1C` [FMN], the Kd was 6.8 ± 3.4 µM in data set [6]; 0.6 ± 0.1 µM in data set [7]; 3.5 ± 1.5 µM in data set [8]; 3.8 ± 0.4 µM in data set [9]; 9.1 ± 0.6 µM in data set [10].

B1: Pden_5119 protein (flavin-dependent NADH oxidase of Paracoccus denitrificans) (enzyme)
chain: MPGPRIVAFAGSWSRPSKTRSLVEEAARRAVARFGGSAHVFDIADLGPDFGSLRQPQDGPHTRHLDAFLAADALIVASPVYKGSYTGLFKHFIDLIEPVALVGKPVLLAATGGGDRHALVIEHQLRPVFGFFEAHTLATGLYVSASDFGPDGLASEAASTRLDRAVAQFAAHLSRHDAAPLLAVG
notes: Pden_5119, product of the gene pden_5119 of Paracoccus denitrificans; subunit molar mass 20 596 g/mol; 15 histidines per monomer including the tag; also called wild-type; not shown: His6, C-terminal, kept
With B1, the “stoichiometry N” value in data set [11] came out at 2.

As a reminder, the stoichiometry N is a count of units in the complex or per binding partner.
